Results published in US7582638B2, “Pyrazole-isoquinoline urea derivatives as p38 kinase inhibitors” (Eli Lilly and Company, priority 2005, dated 2009).
pIC50: −log10 of the molar value.

Target: p38 kinase enzyme
Experiment: Inhibition of p38 kinase (33P-ATP, EGF peptide 661-681 substrate)
Format: biochemical
Details: 40 minutes at 30° C.
Description: The kinase buffer solution is prepared by combining 2.5 mL 1M Tris-HCl (pH 7.5), 0.1 mL 1 M dithiothreitol, 1.0 mL 1 M magnesium chloride, and 300 μL 1% Triton X-100 and diluting to 100 mL with water. 84 mL of this kinase buffer solution is combined with 16 mL DMSO to prepare the 16% DMSO solution.
The 200 μM ATP solution is prepared by adding 102.6 μL 10 mM aqueous ATP, 25 μL ^33P-ATP, and 163.5 μL of 4 mM aqueous Epidermal Growth Factor Peptide 661-681 (Biomol, Catalog #P-121) in 5 mL kinase buffer solution.
The p38 kinase enzyme solution is prepared by dissolving 9.5 μL concentrated enzyme solution (250 ng p38 enzyme/μL kinase buffer solution) in 1536 μL kinase buffer solution.
An 80 μM solution of each test compound and control compound are prepared by dissolving 2 μL of a 10 mM stock solution of the respective compounds in dimethylsulfoxide in 248 μL of the 16% DMSO solution in a Costar 96-well microtiter plate. […]
10 μL of serially diluted compound is placed with a Beckman Multimek 96-well automated liquid handler to the assay plate. […] The plates are allowed to sit for 30 min and counted on a PE/Wallac Microbeta Trilux scintillation counter for ^33P-isotope.
The compound exemplified in Example 12 is initially tested at 10 concentrations (20 μM-1 nM using 1:3 serial dilutions). […] IC50 values are calculated (IDBS ActivityBase software) for each compound using non-linear regression.

`CS(=O)(=O)O.Cc1ccc(-n2nc(C3(C)CC3)cc2NC(=O)Nc2cnc(OC3CCN(C(=O)C4(C)CC4)CC3)c3ccccc23)cc1` [Example 12, 1-{1-[1-(1-Methyl-cyclopropanecarbonyl)-piperidin-4-yloxy]-isoquinolin-4-yl}-3-[5-(1-methyl-cyclopropyl)-2-p-tolyl-2H-pyrazol-3-yl]-urea mesylate] was tested. Which pIC50 did it give?
Its pIC50 is 7.47.
